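GI50: concentration for 50% inhibition of growth. TGI denotes the concentration required for complete inhibition of growth.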
Assays:
Test in all cases: DTP human tumour cell line panel, 384-well format
[1] = tested on: 786-0 renal
[2] = tested on: A498 renal
[3] = tested on: A549 NSCLC
[4] = tested on: ACHN renal
[5] = tested on: BT-549 breast
[6] = tested on: CAKI-1 renal
[7] = tested on: CCRF-CEM leukemia
[8] = tested on: COLO 205 colon
[9] = tested on: DU-145 prostate
[10] = tested on: EKVX NSCLC
[11] = tested on: HCC-2998 colon
[12] = tested on: HCT-15 colon
[13] = tested on: HL-60(TB) leukemia
[14] = tested on: HOP-62 NSCLC
[15] = tested on: HOP-92 NSCLC
[16] = tested on: HS 578T breast
[17] = tested on: HT29 colon
[18] = tested on: IGROV1 ovarian
[19] = tested on: K-562 leukemia
[20] = tested on: KM12 colon
[21] = tested on: LOX IMVI melanoma
[22] = tested on: M14 melanoma
[23] = tested on: MALME-3M melanoma
[24] = tested on: MCF7 breast
[25] = tested on: MDA-MB-231 breast
[26] = tested on: MDA-MB-435 melanoma
[27] = tested on: MDA-MB-468 breast
[28] = tested on: MOLT-4 leukemia
[29] = tested on: NCI-H226 lung
[30] = tested on: NCI-H23 lung
[31] = tested on: NCI-H322M lung
[32] = tested on: NCI-H460 NSCLC
[33] = tested on: NCI-H522 lung
[34] = tested on: NCI/ADR-RES ovarian
[35] = tested on: OVCAR-3 ovarian
[36] = tested on: OVCAR-4 ovarian
[37] = tested on: OVCAR-5 ovarian
[38] = tested on: OVCAR-8 ovarian
[39] = tested on: PC-3 prostate
[40] = tested on: RPMI-8226 leukemia
[41] = tested on: RXF 393 renal
[42] = tested on: SF-268 CNS
[43] = tested on: SF-295 CNS
[44] = tested on: SF-539 CNS
[45] = tested on: SK-MEL-28 melanoma
[46] = tested on: SK-OV-3 ovarian
[47] = tested on: SN12C renal
[48] = tested on: SNB-19 CNS
[49] = tested on: SNB-75 CNS
[50] = tested on: SR leukemia
[51] = tested on: SW-620 colon
[52] = tested on: T-47D breast
[53] = tested on: TK-10 renal
[54] = tested on: U251 glioblastoma
[55] = tested on: UACC-257 melanoma
[56] = tested on: UACC-62 melanoma
[57] = tested on: UO-31 renal

`CCNC(=O)c1noc(-c2cc(C(C)C)c(O)cc2O)c1-c1ccc(CN2CCOCC2)cc1` was tested, and the GI50 [1] was < 10 nM, the TGI [1] was 30.4 nM and the GI50 [2] was < 10 nM. For the same compound, the TGI [2] was 3880 nM, the GI50 [3] was < 10 nM and the TGI [3] was 10700 nM. The GI50 [4] was < 10 nM, the TGI [4] was 15500 nM and the GI50 [5] was < 10 nM. The TGI [5] was < 10 nM, the GI50 [6] was < 10 nM and the TGI [6] was 12600 nM. The GI50 [7] was < 10 nM, the TGI [7] was < 10 nM and the GI50 [8] was 20.7 nM. For the same compound, the TGI [8] was 157 nM, the GI50 [9] was < 10 nM and the TGI [9] was < 10 nM. For the same compound, the GI50 [10] was < 10 nM, the TGI [10] was 1030 nM and the GI50 [11] was < 10 nM. The TGI [11] was < 10 nM, the GI50 [12] was < 10 nM and the TGI [12] was 10400 nM. The GI50 [13] was < 10 nM, the TGI [13] was < 10 nM and the GI50 [14] was < 10 nM. The TGI [14] was 13.1 nM, the GI50 [15] was < 10 nM and the TGI [15] was < 10 nM. The GI50 [16] was < 10 nM, the TGI [16] was < 10 nM and the GI50 [17] was 85.9 nM. It also gave a TGI [17] of 10400 nM, a GI50 [18] of 12.1 nM and a TGI [18] of 37 nM. For the same compound, the GI50 [19] was < 10 nM, the TGI [19] was < 10 nM and the GI50 [20] was < 10 nM. For the same compound, the TGI [20] was 13 nM, the GI50 [21] was < 10 nM and the TGI [21] was < 10 nM. For the same compound, the GI50 [22] was < 10 nM, the TGI [22] was 11200 nM and the GI50 [23] was < 10 nM. For the same compound, the TGI [23] was < 10 nM, the GI50 [24] was < 10 nM and the TGI [24] was 11.2 nM. The GI50 [25] was < 10 nM, the TGI [25] was < 10 nM and the GI50 [26] was < 10 nM. For the same compound, the TGI [26] was 14900 nM, the GI50 [27] was < 10 nM and the TGI [27] was < 10 nM. For the same compound, the GI50 [28] was < 10 nM, the TGI [28] was < 10 nM and the GI50 [29] was < 10 nM. For the same compound, the TGI [29] was 11700 nM, the GI50 [30] was < 10 nM and the TGI [30] was < 10 nM. For the same compound, the GI50 [31] was < 10 nM, the TGI [31] was 12200 nM and the GI50 [32] was < 10 nM. The TGI [32] was < 10 nM, the GI50 [33] was < 10 nM and the TGI [33] was 23.6 nM. For the same compound, the GI50 [34] was 66.9 nM, the TGI [34] was 269 nM and the GI50 [35] was < 10 nM. The TGI [35] was < 10 nM, the GI50 [36] was < 10 nM and the TGI [36] was < 10 nM. For the same compound, the GI50 [37] was 16.9 nM, the TGI [37] was 76.1 nM and the GI50 [38] was < 10 nM. The TGI [38] was < 10 nM, the GI50 [39] was < 10 nM and the TGI [39] was 29.6 nM. For the same compound, the GI50 [40] was < 10 nM, the TGI [40] was < 10 nM and the GI50 [41] was < 10 nM. The TGI [41] was < 10 nM, the GI50 [42] was < 10 nM and the TGI [42] was 10700 nM. For the same compound, the GI50 [43] was 24.7 nM, the TGI [43] was 115 nM and the GI50 [44] was < 10 nM. The TGI [44] was < 10 nM, the GI50 [45] was < 10 nM and the TGI [45] was 42.8 nM. The GI50 [46] was < 10 nM, the TGI [46] was 11000 nM and the GI50 [47] was < 10 nM. It also gave a TGI [47] of 28 nM, a GI50 [48] of 13.1 nM and a TGI [48] of 63.7 nM. For the same compound, the GI50 [49] was < 10 nM, the TGI [49] was < 10 nM and the GI50 [50] was < 10 nM. For the same compound, the TGI [50] was < 10 nM, the GI50 [51] was < 10 nM and the TGI [51] was < 10 nM. For the same compound, the GI50 [52] was < 10 nM, the TGI [52] was 44.8 nM and the GI50 [53] was 24.4 nM. For the same compound, the TGI [53] was 81 nM, the GI50 [54] was < 10 nM and the TGI [54] was 29.7 nM. The GI50 [55] was < 10 nM, the TGI [55] was 420 nM and the GI50 [56] was < 10 nM. The TGI [56] was < 10 nM, the GI50 [57] was 49.4 nM and the TGI [57] was > 100000 nM.

— PubChem BioAssay (NCI)
